Structures can show the parent of a compound that is named as a salt.
What was measured:
[1] = molecular target: JAK1 kinase activity on STAT3 in TF1 cells (Homo sapiens, UniProt P23458); assay: pSTAT3 cell assay (MSD; TF1 cells, 30 ng/mL IL-6 stimulation); type: cell-based; details: 30 ng/mL IL-6, 15 minutes
Summary of the method: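 Readout is pSTAT3 in lysates, quantified on an MSD plate assay using anti-STAT3 antibodies. Before lysis, TF1 cells had been serum-starved, exposed to compound for 1 hour across ten four-fold dilutions starting at 10 μM, and given IL-6 for 15 minutes.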

[2] = molecular target: JAK2 kinase activity on STAT5 in TF1 cells (Homo sapiens, UniProt O60674); assay: pSTAT5 cell assay (MSD; TF1 cells, 30 ng/mL IL-3 stimulation); type: cell-based; details: 30 ng/mL IL-3, 15 minutes
Chain of JAK2 kinase activity on STAT5 in TF1 cells (O60674 whole entry): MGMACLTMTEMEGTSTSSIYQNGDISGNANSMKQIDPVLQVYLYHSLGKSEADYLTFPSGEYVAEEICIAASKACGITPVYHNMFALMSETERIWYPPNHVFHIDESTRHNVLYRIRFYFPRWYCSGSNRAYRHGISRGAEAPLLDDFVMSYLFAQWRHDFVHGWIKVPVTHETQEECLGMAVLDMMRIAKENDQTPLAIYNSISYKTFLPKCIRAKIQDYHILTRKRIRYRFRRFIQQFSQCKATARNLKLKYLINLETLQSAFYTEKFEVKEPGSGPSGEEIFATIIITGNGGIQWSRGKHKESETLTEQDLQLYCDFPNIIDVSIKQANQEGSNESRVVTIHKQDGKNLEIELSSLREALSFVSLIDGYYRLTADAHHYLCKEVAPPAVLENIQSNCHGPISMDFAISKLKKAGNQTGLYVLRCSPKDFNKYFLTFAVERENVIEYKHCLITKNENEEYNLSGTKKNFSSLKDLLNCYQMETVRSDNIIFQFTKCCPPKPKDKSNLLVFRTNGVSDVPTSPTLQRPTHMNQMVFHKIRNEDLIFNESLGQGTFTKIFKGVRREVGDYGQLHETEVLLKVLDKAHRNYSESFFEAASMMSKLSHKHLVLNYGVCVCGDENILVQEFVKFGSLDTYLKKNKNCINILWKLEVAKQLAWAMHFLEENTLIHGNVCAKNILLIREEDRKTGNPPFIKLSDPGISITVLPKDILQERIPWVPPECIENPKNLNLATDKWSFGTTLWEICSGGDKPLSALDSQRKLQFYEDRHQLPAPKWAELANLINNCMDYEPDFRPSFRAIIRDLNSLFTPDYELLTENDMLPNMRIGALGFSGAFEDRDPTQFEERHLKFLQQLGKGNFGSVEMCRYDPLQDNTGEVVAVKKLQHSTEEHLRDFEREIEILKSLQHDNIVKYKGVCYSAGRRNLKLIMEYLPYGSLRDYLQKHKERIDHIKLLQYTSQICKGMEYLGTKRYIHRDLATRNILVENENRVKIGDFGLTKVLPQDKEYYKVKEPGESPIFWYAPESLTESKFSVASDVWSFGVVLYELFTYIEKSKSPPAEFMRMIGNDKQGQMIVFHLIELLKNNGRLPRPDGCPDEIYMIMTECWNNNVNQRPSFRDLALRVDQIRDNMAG
Summary of the method: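 Serum-starved TF1 cells with native JAK2/STAT5 were pretreated 1 h with compound (10-point four-fold dilutions from 10 μM), then stimulated 15 min with 30 ng/mL IL-3. pSTAT5 in lysates quantified by MSD immunoassay; normalized percent activity fitted to a 4-parameter logistic curve for IC50.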

[3] = molecular target: T1, human JAK3 kinase domain (JH1) (Homo sapiens, UniProt P52333); assay: JH1 biochemical assay for JAK3 (ADP-Glo kinase assay, recombinant JH1 catalytic domain, JAK3-974 peptide, 4 μM ATP)
T1 construct: recombinantly generated catalytic kinase (also known as JH1) domain of human JAK1, JAK2, JAK3 and TYK2
T1 sequence (P52333 822-1111 limits assumed): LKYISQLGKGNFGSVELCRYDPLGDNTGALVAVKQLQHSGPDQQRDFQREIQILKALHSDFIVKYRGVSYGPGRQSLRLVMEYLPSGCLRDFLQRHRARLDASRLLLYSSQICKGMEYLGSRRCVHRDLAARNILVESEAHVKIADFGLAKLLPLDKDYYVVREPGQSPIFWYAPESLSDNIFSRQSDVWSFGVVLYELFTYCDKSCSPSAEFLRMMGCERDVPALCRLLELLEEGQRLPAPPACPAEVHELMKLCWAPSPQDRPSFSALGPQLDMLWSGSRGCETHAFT
Summary of the method: (§1)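 ADP-Glo luminescence with 50 μM peptide and 100 min reactions: JAK1 4 nM with JAK3-342 peptide; JAK2, JAK3 and TYK2 at 0.2, 0.3 and 2 nM with JAK3-974 peptide. Compounds tested from 10 or 1 μM top, 11 points, 3-fold. IC50 from a 4-parameter logistic fit of normalized activity.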

[4] = molecular target: T2, human JAK1 kinase domain (JH1) (Homo sapiens, UniProt P23458); assay: JH1 biochemical assay for JAK1 (ADP-Glo kinase assay, recombinant JH1 catalytic domain, JAK3-342 peptide, 35 μM ATP)
T2 construct: recombinantly generated catalytic kinase (also known as JH1) domain of human JAK1, JAK2, JAK3 and TYK2
T2 sequence (P23458 875-1153 limits assumed): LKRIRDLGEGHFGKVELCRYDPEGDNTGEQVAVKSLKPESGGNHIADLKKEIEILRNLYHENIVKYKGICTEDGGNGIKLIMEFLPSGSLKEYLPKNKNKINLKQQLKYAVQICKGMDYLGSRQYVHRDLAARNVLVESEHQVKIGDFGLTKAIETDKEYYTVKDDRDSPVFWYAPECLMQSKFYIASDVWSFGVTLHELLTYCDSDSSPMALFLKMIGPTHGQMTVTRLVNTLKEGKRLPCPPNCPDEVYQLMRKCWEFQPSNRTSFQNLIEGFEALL
Summary of the method: as §1

[5] = molecular target: T3, human TYK2 kinase domain (JH1) (Homo sapiens, UniProt P29597); assay: JH1 biochemical assay for TYK2 (ADP-Glo kinase assay, recombinant JH1 catalytic domain, JAK3-974 peptide, 10 μM ATP)
T3 construct: recombinantly generated catalytic kinase (also known as JH1) domain of human JAK1, JAK2, JAK3 and TYK2
T3 sequence (P29597 897-1176 limits assumed): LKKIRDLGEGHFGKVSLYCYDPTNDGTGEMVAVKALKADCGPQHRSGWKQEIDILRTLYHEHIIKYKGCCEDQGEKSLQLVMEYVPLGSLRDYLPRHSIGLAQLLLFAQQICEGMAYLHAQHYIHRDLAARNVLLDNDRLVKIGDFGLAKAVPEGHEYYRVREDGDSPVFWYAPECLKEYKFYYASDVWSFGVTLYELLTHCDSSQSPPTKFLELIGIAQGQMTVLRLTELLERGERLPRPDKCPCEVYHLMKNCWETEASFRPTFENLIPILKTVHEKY
Summary of the method: as §1

[6] = molecular target: Tyk2 kinase activity on STAT4 in NK92 cells (Homo sapiens, UniProt P29597); assay: pSTAT4 cell assay (MSD; NK92 cells, 30 ng/mL IL2 stimulation); type: cell-based; details: 30 ng/mL IL2, 15 minutes
Chain of Tyk2 kinase activity on STAT4 in NK92 cells (P29597 whole entry): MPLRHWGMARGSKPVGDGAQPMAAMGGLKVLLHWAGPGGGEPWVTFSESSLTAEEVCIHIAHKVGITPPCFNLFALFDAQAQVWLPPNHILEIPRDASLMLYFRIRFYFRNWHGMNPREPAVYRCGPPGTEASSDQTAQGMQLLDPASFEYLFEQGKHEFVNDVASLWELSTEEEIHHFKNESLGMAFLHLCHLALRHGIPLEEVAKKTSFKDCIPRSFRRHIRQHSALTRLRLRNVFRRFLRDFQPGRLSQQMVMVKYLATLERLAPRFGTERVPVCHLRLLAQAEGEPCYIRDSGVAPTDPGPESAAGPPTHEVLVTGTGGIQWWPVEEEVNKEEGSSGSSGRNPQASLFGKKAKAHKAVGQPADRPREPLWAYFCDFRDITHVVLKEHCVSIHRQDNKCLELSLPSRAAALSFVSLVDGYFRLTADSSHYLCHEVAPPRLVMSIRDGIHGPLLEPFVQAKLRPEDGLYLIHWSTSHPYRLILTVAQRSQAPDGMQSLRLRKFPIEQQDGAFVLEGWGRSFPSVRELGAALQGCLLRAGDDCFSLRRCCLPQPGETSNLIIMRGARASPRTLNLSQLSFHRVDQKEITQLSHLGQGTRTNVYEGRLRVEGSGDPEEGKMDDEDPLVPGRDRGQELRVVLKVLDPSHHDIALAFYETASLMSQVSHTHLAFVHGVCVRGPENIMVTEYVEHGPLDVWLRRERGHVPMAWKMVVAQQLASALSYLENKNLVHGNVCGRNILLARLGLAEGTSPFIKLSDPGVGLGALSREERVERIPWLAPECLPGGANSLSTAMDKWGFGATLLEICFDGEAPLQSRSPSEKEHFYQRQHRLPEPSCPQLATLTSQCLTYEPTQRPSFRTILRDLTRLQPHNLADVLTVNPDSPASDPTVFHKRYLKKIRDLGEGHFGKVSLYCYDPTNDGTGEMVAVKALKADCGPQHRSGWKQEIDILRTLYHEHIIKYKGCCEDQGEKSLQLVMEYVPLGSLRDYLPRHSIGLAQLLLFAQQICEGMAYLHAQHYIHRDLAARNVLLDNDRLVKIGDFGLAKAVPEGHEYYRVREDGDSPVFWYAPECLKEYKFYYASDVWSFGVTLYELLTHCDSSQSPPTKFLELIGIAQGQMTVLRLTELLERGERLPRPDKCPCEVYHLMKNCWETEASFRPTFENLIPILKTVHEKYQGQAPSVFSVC
Summary of the method: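 NK92, serum-starved; cpd 1 hr, 10-pt 4-fold from 10 μM; IL2 30 ng/mL 15 min; lyse; MSD with anti-STAT4 Abs; IC50 by 4-PL fit.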

[7] = molecular target: T4, human JAK2 kinase domain (JH1) (Homo sapiens, UniProt O60674); assay: JH1 biochemical assay for JAK2 (ADP-Glo kinase assay, recombinant JH1 catalytic domain, JAK3-974 peptide, 15 μM ATP)
T4 construct: recombinantly generated catalytic kinase (also known as JH1) domain of human JAK1, JAK2, JAK3 and TYK2
T4 sequence (O60674 849-1124 limits assumed): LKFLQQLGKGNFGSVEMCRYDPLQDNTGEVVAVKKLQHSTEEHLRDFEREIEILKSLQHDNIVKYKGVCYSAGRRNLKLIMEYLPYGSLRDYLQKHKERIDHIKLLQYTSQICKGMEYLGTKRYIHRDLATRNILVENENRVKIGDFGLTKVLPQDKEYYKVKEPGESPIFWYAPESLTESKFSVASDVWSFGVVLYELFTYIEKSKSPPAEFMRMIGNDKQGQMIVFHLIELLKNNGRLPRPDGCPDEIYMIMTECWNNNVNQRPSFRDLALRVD
Summary of the method: as §1

Chain of JAK1 kinase activity on STAT3 in TF1 cells (P23458 whole entry): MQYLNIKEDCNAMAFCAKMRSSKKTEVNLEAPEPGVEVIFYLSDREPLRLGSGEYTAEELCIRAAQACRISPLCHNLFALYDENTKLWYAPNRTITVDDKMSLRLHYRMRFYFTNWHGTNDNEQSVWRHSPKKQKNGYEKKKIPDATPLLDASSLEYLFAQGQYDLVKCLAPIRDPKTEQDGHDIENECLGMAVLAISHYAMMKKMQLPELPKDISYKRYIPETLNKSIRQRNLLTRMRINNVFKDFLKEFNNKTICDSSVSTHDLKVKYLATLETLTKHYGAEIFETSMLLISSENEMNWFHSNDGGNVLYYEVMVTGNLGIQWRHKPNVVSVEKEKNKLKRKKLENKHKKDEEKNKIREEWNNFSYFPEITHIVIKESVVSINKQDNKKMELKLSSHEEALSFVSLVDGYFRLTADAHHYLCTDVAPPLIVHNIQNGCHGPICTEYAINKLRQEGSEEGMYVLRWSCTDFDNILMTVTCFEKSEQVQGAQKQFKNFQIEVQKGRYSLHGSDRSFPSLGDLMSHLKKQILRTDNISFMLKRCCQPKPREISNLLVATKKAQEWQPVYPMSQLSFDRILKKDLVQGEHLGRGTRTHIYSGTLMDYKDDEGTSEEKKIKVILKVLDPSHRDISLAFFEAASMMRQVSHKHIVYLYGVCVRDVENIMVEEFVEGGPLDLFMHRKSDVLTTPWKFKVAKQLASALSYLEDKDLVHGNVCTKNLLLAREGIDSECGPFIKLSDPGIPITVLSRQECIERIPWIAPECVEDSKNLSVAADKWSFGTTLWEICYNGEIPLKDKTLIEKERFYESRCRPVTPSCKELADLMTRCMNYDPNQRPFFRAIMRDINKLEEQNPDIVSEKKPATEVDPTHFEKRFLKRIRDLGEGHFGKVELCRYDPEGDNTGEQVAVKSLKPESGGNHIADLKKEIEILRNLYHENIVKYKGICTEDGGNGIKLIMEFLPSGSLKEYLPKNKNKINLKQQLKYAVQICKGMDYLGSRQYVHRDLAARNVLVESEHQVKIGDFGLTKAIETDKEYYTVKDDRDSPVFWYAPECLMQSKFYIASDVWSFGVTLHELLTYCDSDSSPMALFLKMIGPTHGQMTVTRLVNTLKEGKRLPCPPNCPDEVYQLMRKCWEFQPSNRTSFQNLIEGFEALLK

Row | Compound | IC50 [1] [nM] | IC50 [2] [nM] | IC50 ([3]; JH1 kinase domain, ADP-Glo) [nM] | IC50 ([4]; JH1 kinase domain, ADP-Glo) [nM] | IC50 ([5]; JH1 kinase domain, ADP-Glo) [nM] | IC50 [6] [nM] | IC50 ([7]; JH1 kinase domain, ADP-Glo) [nM] | IC50 ([3]; JAK3 JH1, ADP-Glo) [nM] | IC50 ([4]; JAK1 JH1, ADP-Glo) [nM] | IC50 ([5]; TYK2 JH1, ADP-Glo) [nM] | IC50 ([7]; JAK2 JH1, ADP-Glo) [nM]
1 | C[C@@H]1CN(c2nc(-c3cnn(C(F)F)c3)cn3ncc(F)c23)C(=O)[C@]1(C#N)C1CC1 [Example 189, (3R,4S)-3-cyclopropyl-1-(6-(1-(difluoromethyl)-1H-pyrazol-4-yl)-3-fluoropyrazolo[1,5-a]pyrazin-4-yl)-4-methyl-2-oxopyrrolidine-3-carbonitrile] | 1000 to 5000 | 1000 to 5000 | < 100 | < 100 | < 5 | 50 to 100 | 100 to 1000 | – | – | – | –
2 | C[C@@H]1CN(c2ccnn3cc(-n4ccnc4)cc23)C(=O)[C@]1(C#N)C1CC1 [Example 336, (3R,4S)-1-(6-(1H-imidazol-1-yl)pyrrolo[1,2-b]pyridazin-4-yl)-3-cyclopropyl-4-methyl-2-oxopyrrolidine-3-carbonitrile] | > 10000 | > 10000 | – | – | – | > 100 | – | 100 to 1000 | 100 to 1000 | 20 to 50 | 1000 to 5000
3 | C[C@@H]1CN(c2ccnc3cc(-c4cnn(C56CC(C5)C6)c4)oc23)C(=O)[C@]1(C#N)C1CC1 [Example 344, (3R,4S)-1-(2-(1-(bicyclo[1.1.1]pentan-1-yl)-1H-pyrazol-4-yl)furo[3,2-b]pyridin-7-yl)-3-cyclopropyl-4-methyl-2-oxopyrrolidine-3-carbonitrile] | 100 to 1000 | 1000 to 5000 | – | – | – | > 100 | – | < 100 | 100 to 1000 | < 5 | 100 to 1000
4 | C[C@@H]1CN(c2ccnn3cc(-c4ccc5cnn(C)c5c4)cc23)C(=O)[C@]1(C#N)C1CC1 [Example 68, (3R,4S)-3-cyclopropyl-4-methyl-1-(6-(1-methyl-1H-indazol-6-yl)pyrrolo[1,2-b]pyridazin-4-yl)-2-oxopyrrolidine-3-carbonitrile] | 100 to 1000 | 5000 to 10000 | 100 to 1000 | < 100 | 5 to 20 | 50 to 100 | 100 to 1000 | – | – | – | –
5 | C[C@@H]1CN(c2ccnn3cc(-c4cnn5c4CCC5)cc23)C(=O)[C@]1(C#N)C1CC1 [Example 171, (3R,4S)-3-cyclopropyl-1-(6-(5,6-dihydro-4H-pyrrolo[1,2-b]pyrazol-3-yl)pyrrolo[1,2-b]pyridazin-4-yl)-4-methyl-2-oxopyrrolidine-3-carbonitrile] | 5000 to 10000 | > 10000 | 100 to 1000 | 100 to 1000 | 5 to 20 | > 100 | 100 to 1000 | – | – | – | –
6 | CNC(=O)c1cc(-c2cn3nccc3c(N3C[C@@H](C)[C@@](C#N)(C4CC4)C3=O)n2)ccn1 [Example 252, 4-(4-((3R,4S)-3-cyano-3-cyclopropyl-4-methyl-2-oxopyrrolidin-1-yl)pyrazolo[1,5-a]pyrazin-6-yl)-N-methylpicolinamide trifluoroacetate] | 1000 to 5000 | > 10000 | – | – | – | > 100 | – | 100 to 1000 | 100 to 1000 | 5 to 20 | 100 to 1000
7 | C[C@@H]1CN(c2ccnn3cc(-c4ccc(N(C)C)nc4)cc23)C(=O)[C@]1(C#N)C1CC1 [Example 62, (3R,4S)-3-cyclopropyl-1-(6-(6-(dimethylamino)pyridin-3-yl)pyrrolo[1,2-b]pyridazin-4-yl)-4-methyl-2-oxopyrrolidine-3-carbonitrile] | 1000 to 5000 | 1000 to 5000 | 100 to 1000 | 100 to 1000 | < 5 | 50 to 100 | 100 to 1000 | – | – | – | –
8 | C[C@@H]1CN(c2ccnn3cc(-c4ccc(C(F)(F)F)nc4)cc23)C(=O)[C@]1(C#N)C1CC1 [Example 74, (3R,4S)-3-cyclopropyl-4-methyl-2-oxo-1-(6-(6-(trifluoromethyl)pyridin-3-yl)pyrrolo[1,2-b]pyridazin-4-yl)pyrrolidine-3-carbonitrile] | 5000 to 10000 | > 10000 | 100 to 1000 | 100 to 1000 | 5 to 20 | > 100 | 1000 to 5000 | – | – | – | –
9 | C[C@@H]1CN(c2nc(-c3cnn(C4CC(C#N)C4)c3)cc3ncsc23)C(=O)[C@]1(C#N)C1CC1 (stereo partly drawn) [Example 356, (3R,4S)-1-(6-(1-(3-cyanocyclobutyl)-1H-pyrazol-4-yl)thiazolo[5,4-c]pyridin-4-yl)-3-cyclopropyl-4-methyl-2-oxopyrrolidine-3-carbonitrile] | 100 to 1000 | < 100 | – | – | – | 20 to 50 | – | < 100 | < 100 | < 5 | < 100
10 | Cc1cnc(-c2cc3c(N4C[C@@H](C)[C@@](C#N)(C5CC5)C4=O)ccnn3c2)s1 [Example 118, (3R,4S)-3-cyclopropyl-4-methyl-1-(6-(5-methylthiazol-2-yl)pyrrolo[1,2-b]pyridazin-4-yl)-2-oxopyrrolidine-3-carbonitrile trifluoroacetate] | 5000 to 10000 | > 10000 | 100 to 1000 | 100 to 1000 | 5 to 20 | > 100 | 100 to 1000 | – | – | – | –
11 | C[C@@H]1CN(c2nc(-c3cnn([C@H]4C[C@@](F)(C#N)C4)c3)cn3ncc(F)c23)C(=O)[C@]1(C#N)C1CC1 [Example 309, (3R,4S)-1-(6-(1-((1r,3R)-3-cyano-3-fluorocyclobutyl)-1H-pyrazol-4-yl)-3-fluoropyrazolo[1,5-a]pyrazin-4-yl)-3-cyclopropyl-4-methyl-2-oxopyrrolidine-3-carbonitrile] | 5000 to 10000 | 1000 to 5000 | – | – | – | > 100 | – | < 100 | < 100 | < 5 | < 100
12 | C[C@@H]1CN(c2ccnn3cc(-c4cccc(C(F)F)n4)cc23)C(=O)[C@]1(C#N)C1CC1 [Example 135, (3R,4S)-3-cyclopropyl-1-(6-(6-(difluoromethyl)pyridin-2-yl)pyrrolo[1,2-b]pyridazin-4-yl)-4-methyl-2-oxopyrrolidine-3-carbonitrile trifluoroacetate] | 1000 to 5000 | > 10000 | 100 to 1000 | 100 to 1000 | 5 to 20 | > 100 | 100 to 1000 | – | – | – | –
13 | COC[C@@]1(C#N)CCN(c2ccnn3cc(-c4cnn(C)c4)cc23)C1=O (single isomer, unassigned) [Example 40] | > 10000 | > 10000 | 100 to 1000 | 1000 to 5000 | 50 to 100 | > 100 | 100 to 1000 | – | – | – | –
14 | C[C@@H]1CN(c2ccnn3cc(-c4cnn(C5CCN(C)CC5)c4)cc23)C(=O)[C@]1(C#N)C1CC1 [Example 331, (3R,4S)-3-cyclopropyl-4-methyl-1-(6-(1-(1-methylpiperidin-4-yl)-1H-pyrazol-4-yl)pyrrolo[1,2-b]pyridazin-4-yl)-2-oxopyrrolidine-3-carbonitrile] | 1000 to 5000 | 100 to 1000 | – | – | – | 50 to 100 | – | < 100 | 100 to 1000 | < 5 | < 100
15 | C[C@@H]1CN(c2ccnn3cc(-c4cn[nH]c4)cc23)C(=O)[C@]1(C#N)C1CC1 [Example 59, (3R,4S)-1-(6-(1H-pyrazol-4-yl)pyrrolo[1,2-b]pyridazin-4-yl)-3-cyclopropyl-4-methyl-2-oxopyrrolidine-3-carbonitrile trifluoroacetate] | 1000 to 5000 | 5000 to 10000 | 100 to 1000 | < 100 | < 5 | 50 to 100 | 100 to 1000 | – | – | – | –
16 | C[C@@H]1CN(c2nc(-c3ccc4nccn4c3)cn3nccc23)C(=O)[C@]1(C#N)C1CC1 [Example 263, (3R,4S)-3-cyclopropyl-1-(6-(imidazo[1,2-a]pyridin-6-yl)pyrazolo[1,5-a]pyrazin-4-yl)-4-methyl-2-oxopyrrolidine-3-carbonitrile trifluoroacetate] | < 100 | 100 to 1000 | – | – | – | 20 to 50 | – | < 100 | < 100 | < 5 | < 100
